Patent US9409952B2, “Peptide-compound cyclization method” (Chugai Seiyaku Kabushiki Kaisha, priority 2011, dated 2016)
Read-outs that look alike come from different tables or passages of the source. Positions of bridges follow the written chain, without caps; N, C: chain ends. Non-standard residues stand in square brackets, D forms with d. Residues, ends and D or L forms follow the SMILES beside them. *: point of attachment. Ala(4-thiazolyl) = N[C@@H](Cc1cscn1)C(=O)O; Tyr(3-F) = N[C@@H](Cc1ccc(O)c(F)c1)C(=O)O; Arg(Me2s) = CN=C(NC)NCCC[C@H](N)C(=O)O; Met(O2) = CS(=O)(=O)CC[C@H](N)C(=O)O; NMeF = CN[C@@H](Cc1ccccc1)C(=O)O; 3Pal = N[C@@H](Cc1cccnc1)C(=O)O; NMeL = CN[C@@H](CC(C)C)C(=O)O; NMeA = CN[C@@H](C)C(=O)O; Piperidide = C1CCN(*)CC1; Sar = CNCC(=O)O

How the values were obtained:
[1] = PAMPA (parallel artificial membrane permeability assay); format: in vitro ADME; details: for Papp at 18 hours, 50 µM: PAMPA
Method in brief: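 Artificial membrane was 10% (w/v) egg lecithin plus 0.5% (w/v) cholesterol in dodecane on a PVDF filter. A 10 mM DMSO stock was added at 0.5% (v/v) to donor buffer (50 mM MOPSO, pH 6.5, 5.0% glycocholic acid). After 18 h at 37 °C, LC/MS or LC/UV gave donor and acceptor levels for Pe.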

[2] = Metabolic stability in human hepatic microsome; format: in vitro ADME; details: microsomes
[3] = membrane permeation rate (Pe), 50 mM MOPSO buffer pH 6.5 with 5.0% glycocholic acid, 37° C., 18 hours, read-out: iPAMPA Pe
[4] = pH 7.4, human hepatic microsome, NADPH(+), read-out: CL NADPH(+)

CC[C@H](C)[C@H](NC(=O)[C@H](C)N(C)C(=O)[C@@H]1CC(=O)N[C@H](C(C)C)C(=O)N(C)[C@@H](C)C(=O)N(C)[C@@H](CC(C)C)C(=O)N(C)[C@@H](CC(C)C)C(=O)N(C)CC(=O)N(C)[C@@H](Cc2ccccc2)C(=O)N[C@@H](C)C(=O)N(C)[C@@H](Cc2ccccc2)C(=O)N(C)[C@@H](CC(C)C)C(=O)N[C@@H]([C@@H](C)O)C(=O)N1)C(=O)N1CCCCC1 [DP-584] ([dV][NMeA][NMeL][NMeL][Sar][NMeF]A[NMeF][NMeL]TD[NMeA]I-Piperidide; lactam N-11)
Papp at 18 hours, 50 µM [1, 3]: 18 ×10⁻⁶ cm/s | microsomal CLint at 1 uM [2, 4]: 20 µL/min/mg

CC(C)C[C@H]1C(=O)N[C@@H](C(C)C)C(=O)N(C)[C@@H](CC(C)C)C(=O)N(C)[C@@H](CC(C)C)C(=O)N[C@H](C(=O)N(C)[C@@H](Cc2ccccc2)C(=O)N[C@@H](C)C(=O)N2CCCCC2)CC(=O)N[C@H](C(C)C)C(=O)N(C)[C@@H](CC(C)C)C(=O)N(C)[C@@H](Cc2ccccc2)C(=O)N(C)[C@@H](CC(C)C)C(=O)N[C@@H](Cc2c[nH]cn2)C(=O)N1C [DP-586] ([dV][NMeL][NMeF][NMeL]H[NMeL]V[NMeL][NMeL]D[NMeF]A-Piperidide; lactam N-10)
Papp at 18 hours, 50 µM [1, 3]: 0.44 ×10⁻⁶ cm/s | microsomal CLint at 1 uM [2, 4]: 15 µL/min/mg

CC(C)C[C@H]1C(=O)N(C)[C@@H](CC(C)C)C(=O)N[C@H](C(=O)N(C)[C@@H](Cc2ccccc2)C(=O)N[C@@H](C)C(=O)N2CCCCC2)CC(=O)N[C@H](C(C)C)C(=O)N(C)[C@@H](C)C(=O)N(C)[C@@H](Cc2ccccc2)C(=O)N(C)[C@@H](CC(C)C)C(=O)N[C@@H](Cc2cccnc2)C(=O)N(C)CC(=O)N[C@@H](C)C(=O)N1C [DP-591] ([dV][NMeA][NMeF][NMeL][3Pal][Sar]A[NMeL][NMeL]D[NMeF]A-Piperidide; lactam N-10)
Papp at 18 hours, 50 µM [1, 3]: 26 ×10⁻⁶ cm/s | microsomal CLint at 1 uM [2, 4]: 15 µL/min/mg

CC(C)C[C@@H]1NC(=O)[C@H](Cc2c[nH]cn2)NC(=O)[C@H](Cc2ccccc2)N(C)C(=O)[C@H](CC(C)C)NC(=O)[C@H](CC(C)C)N(C)C(=O)[C@H](Cc2ccccc2)NC(=O)[C@H](CC(C)C)N(C)C(=O)[C@H](CC(C)C)N(C)C(=O)[C@H](Cc2ccccc2)NC(=O)CN(C)C(=O)C[C@@H](C(=O)N(C)[C@@H](Cc2ccccc2)C(=O)N[C@@H](C)C(=O)N2CCCCC2)NC1=O [DP-592] ([Sar]F[NMeL][NMeL]F[NMeL]L[NMeF]HLD[NMeF]A-Piperidide; lactam N-11)
Papp at 18 hours, 50 µM [1, 3]: 0.18 ×10⁻⁶ cm/s | microsomal CLint at 1 uM [2, 4]: 5 µL/min/mg

CC(C)C[C@@H]1NC(=O)[C@H](CCC(=O)O)NC(=O)[C@@H]2CCCN2C(=O)[C@H](CC(C)C)NC(=O)[C@H](CC(C)C)N(C)C(=O)[C@H](Cc2ccccc2)NC(=O)[C@H](C)N(C)C(=O)[C@H](CC(C)C)N(C)C(=O)[C@H](Cc2ccccc2)NC(=O)CN(C)C(=O)C[C@@H](C(=O)N(C)[C@@H](Cc2ccccc2)C(=O)N[C@@H](C)C(=O)N2CCCCC2)NC1=O [DP-595] ([Sar]F[NMeL][NMeA]F[NMeL]LPELD[NMeF]A-Piperidide; lactam N-11)
Papp at 18 hours, 50 µM ([1]; pH 6.5): 4.9 ×10⁻⁶ cm/s | microsomal CLint at 1 uM ([2]; human, pH 7.4, CL NADPH(+)): 9 µL/min/mg

C/N=C(\NC)NCCC[C@@H]1NC(=O)[C@@H]2CCCN2C(=O)[C@H](CC(C)C)NC(=O)[C@H](CC(C)C)N(C)C(=O)[C@H](Cc2ccccc2)NC(=O)CN(C)C(=O)[C@H](CC(C)C)N(C)C(=O)[C@H](Cc2ccccc2)NC(=O)CN(C)C(=O)C[C@@H](C(=O)N(C)[C@@H](Cc2ccccc2)C(=O)N[C@@H](C)C(=O)N2CCCCC2)NC(=O)[C@H](CC(C)C)NC1=O [DP-597] ([Sar]F[NMeL][Sar]F[NMeL]LP[Arg(Me2s)]LD[NMeF]A-Piperidide; lactam N-11)
Papp at 18 hours, 50 µM ([1]; pH 6.5): 1.7 ×10⁻⁶ cm/s | microsomal CLint at 1 uM ([2]; human, pH 7.4, CL NADPH(+)): 12 µL/min/mg

CC(C)C[C@@H]1NC(=O)[C@H](Cc2cccnc2)NC(=O)[C@@H]2CCCN2C(=O)[C@H](C)NC(=O)[C@H](CC(C)C)N(C)C(=O)[C@H](Cc2ccccc2)NC(=O)[C@H](C)N(C)C(=O)[C@H](CC(C)C)N(C)C(=O)[C@H](Cc2ccccc2)NC(=O)[C@H](C)N(C)C(=O)C[C@@H](C(=O)N(C)[C@@H](Cc2ccccc2)C(=O)N[C@@H](C)C(=O)N2CCCCC2)NC1=O [DP-599] ([NMeA]F[NMeL][NMeA]F[NMeL]AP[3Pal]LD[NMeF]A-Piperidide; lactam N-11)
Papp at 18 hours, 50 µM ([1]; pH 6.5): 28 ×10⁻⁶ cm/s | microsomal CLint at 1 uM ([2]; human, pH 7.4, CL NADPH(+)): 84 µL/min/mg

CC(C)C[C@@H]1NC(=O)[C@H](Cc2cccnc2)NC(=O)[C@H](Cc2ccccc2)N(C)C(=O)[C@H](CC(C)C)NC(=O)[C@H](CC(C)C)N(C)C(=O)[C@H](Cc2ccccc2)NC(=O)[C@H](CC(C)C)N(C)C(=O)[C@H](CC(C)C)N(C)C(=O)[C@H](Cc2ccccc2)NC(=O)CN(C)C(=O)C[C@@H](C(=O)N(C)[C@@H](Cc2ccccc2)C(=O)N[C@@H](C)C(=O)N2CCCCC2)NC1=O [DP-600] ([Sar]F[NMeL][NMeL]F[NMeL]L[NMeF][3Pal]LD[NMeF]A-Piperidide; lactam N-11)
iPAMPA Pe ([1]; membrane permeation rate (Pe), 50 mM MOPSO buffer pH 6.5 with 5.0% glycocholic acid, 37° C., 18 hours): 1.0E−07 | microsomal CLint at 1 uM [2, 4]: 12 µL/min/mg

CC(C)C[C@@H]1NC(=O)[C@H](CC(C)C)N(C)C(=O)[C@H](CC(C)C)N(C)C(=O)[C@H](CC(C)C)NC(=O)[C@H](Cc2ccccc2)N(C)C(=O)[C@H](CCS(C)(=O)=O)NC(=O)[C@H](CC(C)C)N(C)C(=O)[C@H](Cc2ccccc2)NC(=O)[C@H](C)NC(=O)C[C@@H](C(=O)N(C)[C@@H](Cc2ccccc2)C(=O)N[C@@H](C)C(=O)N2CCCCC2)NC1=O [DP-607] (AF[NMeL][Met(O2)][NMeF]L[NMeL][NMeL]LD[NMeF]A-Piperidide; lactam N-10)
Papp at 18 hours, 50 µM [1, 3]: 1.2 ×10⁻⁶ cm/s | microsomal CLint at 1 uM [2, 4]: 2 µL/min/mg

CC(C)C[C@@H]1NC(=O)[C@H](CC(C)C)N(C)C(=O)[C@H](C)N(C)C(=O)[C@@H](C(C)C)NC(=O)C[C@@H](C(=O)N2CCCCC2)NC(=O)[C@H](CCC(N)=O)NC(=O)[C@H](CC(C)C)N(C)C(=O)CN(C)C(=O)[C@H](CC(C)C)N(C)C(=O)[C@H](Cc2ccccc2)NC(=O)[C@H](Cc2ccccc2)N(C)C1=O [DP-617] ([dV][NMeA][NMeL]L[NMeF]F[NMeL][Sar][NMeL]QD-Piperidide; lactam N-11)
Papp at 18 hours, 50 µM [1, 3]: 29 ×10⁻⁶ cm/s | microsomal CLint at 1 uM [2, 4]: 30 µL/min/mg

CC(C)C[C@@H]1NC(=O)[C@H](CC(C)C)N(C)C(=O)[C@H](C)N(C)C(=O)[C@@H](C(C)C)NC(=O)C[C@@H](C(=O)N2CCCCC2)NC(=O)[C@H](CCC(=O)N(C)C)NC(=O)[C@H](CC(C)C)N(C)C(=O)[C@H](C)N(C)C(=O)[C@H](CC(C)C)N(C)C(=O)[C@H](Cc2ccccc2)NC(=O)[C@H](Cc2ccccc2)N(C)C1=O [DP-618] ([dV][NMeA][NMeL]L[NMeF]F[NMeL][NMeA][NMeL]E(NMe2)D-Piperidide; lactam N-11)
Papp at 18 hours, 50 µM [1, 3]: 28 ×10⁻⁶ cm/s | microsomal CLint at 1 uM [2, 4]: 39 µL/min/mg

CC(C)C[C@@H]1NC(=O)[C@H](CC(C)C)N(C)C(=O)[C@H](C)N(C)C(=O)[C@@H](C(C)C)NC(=O)C[C@@H](C(=O)N2CCCCC2)NC(=O)[C@H]([C@@H](C)O)NC(=O)[C@H](C)N(C)C(=O)[C@H](C)N(C)C(=O)[C@H](CC(C)C)N(C)C(=O)[C@H](Cc2ccc(O)c(F)c2)NC(=O)[C@H](Cc2ccccc2)N(C)C1=O [DP-619] ([dV][NMeA][NMeL]L[NMeF][Tyr(3-F)][NMeL][NMeA][NMeA]TD-Piperidide; lactam N-11)
Papp at 18 hours, 50 µM [1, 3]: 12 ×10⁻⁶ cm/s | microsomal CLint at 1 uM [2, 4]: 29 µL/min/mg

CC(C)C[C@@H]1NC(=O)[C@H](CC(C)C)N(C)C(=O)[C@H](C)N(C)C(=O)[C@@H](C(C)C)NC(=O)C[C@@H](C(=O)N2CCCCC2)NC(=O)[C@H](CCS(C)(=O)=O)NC(=O)[C@H](CC(C)C)N(C)C(=O)[C@H](C)N(C)C(=O)[C@H](CC(C)C)N(C)C(=O)[C@H](Cc2ccccc2)NC(=O)[C@H](Cc2ccccc2)N(C)C1=O [DP-620] ([dV][NMeA][NMeL]L[NMeF]F[NMeL][NMeA][NMeL][Met(O2)]D-Piperidide; lactam N-11)
Papp at 18 hours, 50 µM [1, 3]: 24 ×10⁻⁶ cm/s | microsomal CLint at 1 uM [2, 4]: 26 µL/min/mg

CC(C)C[C@H]1C(=O)N(C)[C@@H](Cc2ccccc2)C(=O)N(C)[C@@H](CC(C)C)C(=O)N[C@@H]([C@@H](C)O)C(=O)N[C@H](C(=O)N2CCCCC2)CC(=O)N[C@H](C(C)C)C(=O)N(C)[C@@H](C)C(=O)N(C)[C@@H](CC(C)C)C(=O)N[C@@H](CCS(C)(=O)=O)C(=O)N(C)[C@@H](Cc2ccccc2)C(=O)N[C@@H](Cc2ccccc2)C(=O)N1C [DP-621] ([dV][NMeA][NMeL][Met(O2)][NMeF]F[NMeL][NMeF][NMeL]TD-Piperidide; lactam N-11)
Papp at 18 hours, 50 µM [1, 3]: 21 ×10⁻⁶ cm/s | microsomal CLint at 1 uM [2, 4]: 11 µL/min/mg

CC(C)C[C@@H]1NC(=O)[C@H](CC(C)C)N(C)C(=O)[C@H](C)N(C)C(=O)[C@@H](C(C)C)NC(=O)C[C@@H](C(=O)N2CCCCC2)NC(=O)[C@H](Cc2cscn2)NC(=O)[C@H](C)N(C)C(=O)[C@H](C)N(C)C(=O)[C@H](C)N(C)C(=O)[C@H](Cc2ccccc2)NC(=O)[C@H](Cc2ccccc2)N(C)C1=O [DP-624] ([dV][NMeA][NMeL]L[NMeF]F[NMeA][NMeA][NMeA][Ala(4-thiazolyl)]D-Piperidide; lactam N-11)
Papp at 18 hours, 50 µM [1, 3]: 24 ×10⁻⁶ cm/s | microsomal CLint at 1 uM [2, 4]: 30 µL/min/mg

CC(C)C[C@@H]1NC(=O)[C@H](CC(C)C)N(C)C(=O)[C@H](C)N(C)C(=O)[C@@H](C(C)C)NC(=O)C[C@@H](C(=O)N2CCCCC2)NC(=O)[C@H]([C@@H](C)O)NC(=O)[C@H](Cc2ccccc2)N(C)C(=O)[C@H](C)N(C)C(=O)[C@H](CC(C)C)N(C)C(=O)[C@H](Cc2cscn2)NC(=O)[C@H](Cc2ccccc2)N(C)C1=O [DP-625] ([dV][NMeA][NMeL]L[NMeF][Ala(4-thiazolyl)][NMeL][NMeA][NMeF]TD-Piperidide; lactam N-11)
Papp at 18 hours, 50 µM [1, 3]: 26 ×10⁻⁶ cm/s | microsomal CLint at 1 uM [2, 4]: 27 µL/min/mg
